Laboratory results from patent US12508237B2, “Pharmaceutical composition comprising 4-hexylresorcinol as active ingredient for prevention or treatment of bone disease” (KYUNGPOOK NATIONAL UNIVERSITY INDUSTRY-ACADEMIC COOPERATION …, priority 2019, dated 2025).

Columns and labels:
[1] = tested on: osteoporosis (OVX) induced mice; experiment: micro-CT analysis of femur bone in ovariectomy (OVX) osteoporosis mouse model after 4-HR ointment application; format: in vivo; details: ointment containing 2% 4-HR applied to dorsal skin for 4 weeks, compared to osteoporosis (OVX) induced mice
Description: After separating the mouse femur and removing muscle, fixation was performed using 4% PFA at 4° C. for a day. The next day, washing was followed three times with PBS solution to be stored in PBS. The femur stored thereby was analyzed with a Skysan 1272 (Bruker, Massachusetts, USA) model by scanning, in units of 6 μm, the section from 1.6 mm to 2.3 mm below the growth plate. Using micro-CT, during the measurement of trabecular bone volume/tissue volume (BV/TV), trabecular thickness (Tb.Th), trabecular number (Tb.N), trabecular separation (Tb.Sp), and trabecular bone mineral density (BMD), bone volume/tissue volume (BV/TV) and bone mineral density (BMD) of cortical bone was measured as well.
To evaluate the effect of 4-hexylresorcinol (4-HR) on bone remodeling, the ointment containing 2% 4-HR was applied to the mouse dorsal skin for 4 weeks after induction of osteoporosis via ovariectomy (OVX) in a model with osteoporosis, and the change in bone volume was analyzed by micro-CT.

osteoclasts [2] = experiment: osteoclastic activity by Pit assay on bone slices; format: cell-based, mouse; details: differentiated osteoclasts on bone slices, treated with 4-HR for 2 days
Description: Monocytes were sterilized and inoculated on bone slices placed on a 96-well plate, followed by culture for 3 days in the presence of RANKL (30 ng/ml) and M-CSF (30 ng/ml). After 3 days, the differentiated osteoclasts were treated with 4-hexylresorcinol (4-HR), and a culture was performed for 2 days. After 2 days of culture, osteoclasts were removed and bone slices were reacted with horseradish peroxidase-wheat germ agglutinin (Sigma-Aldrich) and then stained with 3,3′-diaminobenzidine (Sigma-Aldrich). Stained cells were analyzed according to the manufacturer's method using a Java-based image analysis program (ImageJ).
To evaluate the effect of 4-hexylresorcinol (4-HR) on the differentiation and activity of osteoclasts, 4-hexylresorcinol (4-HR) was treated on osteoclasts, and cell differentiation and osteoclastic activity were checked by TRAP staining and PIT assay analysis.

osteoblasts (MC3T3-E1) = experiment: osteoblast differentiation by alkaline phosphatase (ALP) and Alizarin red staining; format: cell-based, mouse; details: MC3T3-E1 cells, 4-HR 10^−9 M to 10^−6 M (ALP, 7 days) or 10^−9 M to 10^−4 M (Alizarin red, 14-21 days)
Description: MC3T3-E1 (mouse calvaria osteoblast cell line) cells were cultured in α-MEM containing 10% (v/v) FBS, penicillin (100 units/ml), and streptomycin (100 units/ml) using a constant temperature and humidity incubator in the presence of 5% (v/v) CO2 at 37° C. When the culture dish was filled with osteoblasts with 100% confluency, 50 μg/ml of ascorbic acid and 10 mM of β-glycerophosphate were treated to induce cell differentiation. During cell differentiation, the differentiation medium was replaced every 3 days.
MC3T3-E1 and bone marrow stem cells were inoculated into a 48-well multi-plate at 5×10^4 cells/well, and culture was performed for 7 days with treatment of 4-hexylresorcinol (4-HR) at a concentration of 10^−9 M to 10^−6 M while a differentiation induction medium was replaced every 2 days. After the culture, cells were washed with PBS three times, and a fixative containing 5 ml of citrate acid, 13 ml of acetone, and 1.6 ml of a formaldehyde solution was treated for 45 seconds. Then, the cells were washed twice with PBS, treated with an alkaline-dye mixture, and reacted at room temperature in the darkness for 30 minutes. After removing the solution, cells were washed several times with PBS and observed under a microscope. […]

[3] = tested on: animal model with osteoporosis; experiment: blood biochemical analysis of bone resorption and bone formation markers (CTX, ALP, RANKL) in animal model with osteoporosis; format: in vivo, mouse; details: 4-HR periodically applied to the skin
Description: To evaluate the effect of 4-hexylresorcinol (4-HR) on bone resorption and promoting bone formation, the levels of CTX, ALP, and RANKL in an animal model with osteoporosis were measured via blood biochemical analysis. CTX is used as a marker for evaluating the degree of bone resorption (bone destruction) in the blood, ALP is a marker that indicates the degree of bone formation secreted by osteoblasts, and RANKL is used as a marker that is secreted from osteoblasts and promotes differentiation of osteoclasts.

osteoclasts [4] = experiment: osteoclast differentiation by TRAP staining; format: cell-based; parameters: dose or concentration left out as unconfirmed; details: mouse bone marrow cells with M-CSF and RANKL, 4 days, 4-HR
Description: Mouse bone marrow monocyte (BMM) cells were isolated from the femur and tibia in 8-week-old mice. Muscle was removed after the separation of the femur and tibia from the mice euthanized by cervical dislocation, both ends were cut out, and α-MEM was filtered with a syringe to separate bone marrow cells. After centrifuging the isolated bone marrow cells, red blood cell lysis solution was added to hemolyze red blood cells, and then culture was performed for a day in the α-MEM containing 10% (v/v) FBS, penicillin (100 units/ml), and streptomycin (100 units/ml) using the constant temperature and humidity incubator in the presence of 5% (v/v) CO2 at 37° C. Only suspending cells not adhering to the culture dish were collected, treated with 20 ng/ml of M-CSF, and cultured for 3 days to obtain bone marrow-derived monocyte/macrophage. In an attempt to differentiate macrophages into osteoclasts, 20 ng/ml of M-CSF and 30 ng/ml of RANKL were treated, followed by culture for 4 days. Media were replaced every 2 days while differentiation was induced.
Medullary mononuclear cells isolated from the femur and tibia of mice were treated with 20 ng/ml of M-CSF and reacted for a day. […]

For `CCCCCCc1ccc(O)cc1O` [4-hexylresorcinol (4-HR), 4-hexylbenzene-1,3-diol], the bone density [1] was “increased”, the bone volume [1] was “increased” and the trabecular number [1] was “increased”. For the same compound, the trabecular thickness [1] was “increased”, the “osteoclastic activity (PIT assay)” value (osteoclasts [2]) was “inhibited” and the “differentiation of osteoblasts (ALP and Alizarin red staining)” value (osteoblasts (MC3T3-E1)) was “differentiation was promoted”. The “level of ALP (bone formation marker in blood)” value [3] was “increased”, the “level of CTX (bone resorption marker in blood)” value [3] was “decreased” and the “differentiation of osteoclasts (TRAP staining)” value (osteoclasts [4]) was “inhibited”.
